Measured values as given in US20250161286A1 (AEVIS BIO, INC., priority 2022, published 2025).

Experiments:
[1] = system: iNOS and COX-2; experiment: iNOS and COX-2 mRNA expression in LPS-stimulated BV-2 cells (real-time PCR); type: cell-based, mouse; conditions: BV-2 cells, 3.33, 10 or 30 μM, 1 μg/mL LPS, 6 hours
Experimental: Finally, to determine the mRNA expression levels of iNOS and COX-2, BV-2 was seeded in a 6-well plate (Corning, MD, USA) at 5×10^5 cells/well, and cultured using a DMEM medium (Corning, MD, USA) containing 10% fetal bovine serum (Corning, MD, USA) and 100 U/ml of penicillin/streptomycin (Corning, MD, USA) at 37° C. in a 5% CO2 incubator for one day for stabilization. […] 1 μg/mL of LPS (Sigma, USA) was added to all experimental groups excluding the non-inflammation-induced group and allowed to react at 37° C. in a 5% CO2 incubator for 6 hours.
The drug-treated BV-2 underwent RNA prep according to the kit manual using an RNA prep kit (Monarch Total RNA Miniprep kit, NEB, UK), and the concentration was measured using a nanophotometer (NP80, Implen, Germany). […]
The expression level of each oxidative stress-associated gene in the synthesized cDNA was analyzed and compared using Real-Time PCR (StepOne™ Bioscience, USA) equipment. […] The CT value for the gene of each sample obtained through real-time PCR was normalized by the value of the internal control gene (GAPDH) of each sample, the expression level was estimated inversely by 2ΔΔCT calculation, and the resulting value of each group was quantified and expressed as a percentage relative to the LPS-only treatment group.

[2] = Stability of 3-MP in human plasma (UPLC-MS); type: in vitro ADME
Experimental: To plot a standard calibration curve, the stock sample was diluted by half with acetonitrile from 125 to 0.39 μg/mL to prepare standard solutions for a total of 10 samples at different concentrations, and the calibration curve was plotted as shown in FIG. 6A.
For the experiment of verifying stability in plasma, 10 μL of the test drug prepared at a concentration of 100 μg/mL was added to 90 μL of human plasma and mixed for 30 seconds, and then immediately after the addition, the plasma-mixed test drug was incubated for 15, 30, 60, or 120 minutes to prepare samples. Afterward, 400 μL of 100% ethyl acetate was added to each sample and extracted using a vortex mixture for 1 minute. […] Initially, the mobile phase B was increased from 5% to 95% until 9 minutes and analyzed, the mobile phase B was maintained 95% until 12 minutes, and then the mobile phase B was lowered to 5% and equilibrated, and used in the subsequent analysis. the flow rate of the mobile phase was 0.3 mL/min, the sample injection volume was 2 μL, and the mass spectrometer was operated in the ESI-positive mode. The spray voltage was set to 3.5 kV, and the flow rates of the nitrogen sheath gas, auxiliary gas, and sweep gas were analyzed as 50, 10, and 1 (arbitrary units), respectively. […]

[3] = Cytotoxicity evaluation, CCK analysis kit; type: cell-based; conditions: human, MM.1S (CRL-2974) multiple myeloma cells; MM.1S cells, treated for 3 days
Experimental: The MM.1S (CRL-2974) cell line, which is a human multiple myeloma cell line, was purchased from the American Type Culture Collection (ATCC, Manassas, VA, USA) and used, and incubated using RPMI1640 medium (Corning, MD, USA) supplemented with 10% fatal bovine serum (Corning, MD, USA), 100 U/ml of penicillin (Corning, MD, USA), and 100 μg/ml of streptomycin (Corning, MD, USA) at 37° C. in a 5% CO2 incubator for 24 hours.

[4] = system: mouse model with Parkinson's disease induced by MPTP administration; experiment: Grip strength test in MPTP-induced Parkinson's disease mouse model; type: in vivo; conditions: MPTP mice
Experimental: To cause the disease, mice in the G2, G3, G4, and G5 groups were administered MPTP dissolved in saline via an intraperitoneal route at 2-hour intervals four times a day (20 mg/kg/time), while the G1 group received the same amount of saline.
A grip strength test was performed on day 6 of the test. When a mouse put on a grip strength measuring device (SLD-5FGN, Duratool, China) pulled a net of the device, the measuring device automatically measured the animal's grip strength and expressed it in grams. The average value was measured through five tests per individual.

SMILES: Nc1cccc2c1C(=S)N(C1CCC(=O)NC1=O)C2=O (stereo not drawn) [3-MP, 3-thiopomalidomide]
- mRNA expression of oxidative stress-associated gene (iNOS, COX-2) [1]: effectively inhibit the mRNA expression of an oxidative stress-associated gene
- stability in plasma over time ([2]; 0 to 120 minutes): maintained without significant changes
- plasma level ([2]; immediately after plasma addition (0 minutes)): 80 µg/mL
- IC50 at 3 days [3]: ≥ 50 µM
- grip strength ([4]; oral, 90 mg/kg): recovered to a level similar to that of the vehicle administration group
- grip strength ([4]; oral, 10, 30, 90 mg/kg/day, versus MPTP group): increased in a concentration-dependent manner
